In publication PMC6017136, “Efficient Synthesis and Bioactivity of Novel Triazole Derivatives” (Molecules : A Journal of Synthetic Chemistry and Natural …, 2018):

Legend:
Test in all cases: microbe, parasite or virus in culture
[1] = test system: Fusarium oxysporum Schl. F.sp. vasinfectum (Atk.) Snyd. & Hans.; details: read-out: Inhibition Ratio (%) / Fusarium oxysporum Schl. F.sp. vasinfectum (Atk.) Snyd. & Hans.
Pyricularia oryzae Cav. = details: read-out: Inhibition Ratio (%) / Pyricularia oryzae Cav.
[2] = test system: Phytophthora capsici P. CapasiciLeonian; details: read-out: Inhibition Ratio (%) / P. CapasiciLeonian
Botrytis cinerea Pers = details: read-out: Inhibition Ratio (%) / B. cinerea
[3] = test system: Sclerotinia sclerotiorum (Lib.) de Bary; details: read-out: Inhibition Ratio (%) / S. sclerotiorum

| SMILES | inhibition at 50 µg/mL [1] [%] | inhibition at 50 µg/mL (Pyricularia oryzae Cav.) [%] | inhibition at 50 µg/mL [2] [%] | inhibition at 50 µg/mL (Botrytis cinerea Pers) [%] | inhibition at 50 µg/mL [3] [%] |
| --- | --- | --- | --- | --- | --- |
| CO[C@@H]1[C@H]2OC(C)(C)O[C@H]2O[C@@H]1Cn1cc(-c2ccc(Cl)cc2)nn1 [1-f, Furan glucosyl-1,2,3-triazole (1-f)] | 89 | 82.4 | 81.2 | 71 | 85.1 |
| CO[C@H]1[C@@H](Cn2cc(-c3ccccc3)nn2)OC(O)[C@@H]1O (stereo partly drawn) [3-a, Furan glucosyl-1,2,3-triazole (3-a)] | 58.7 | 61.2 | 40.1 | 33.3 | 30.3 |
| CO[C@H]1[C@@H](Cn2cc(-c3cccc(C)c3)nn2)OC(O)[C@@H]1O (stereo partly drawn) [3-b, Furan glucosyl-1,2,3-triazole (3-b)] | 34.1 | 35.4 | 35.6 | 15.3 | 28.4 |
| COc1ccc(-c2cn(C[C@H]3OC(O)[C@H](O)[C@H]3OC)nn2)cc1 (stereo partly drawn) [3-c, Furan glucosyl-1,2,3-triazole (3-c)] | 29.3 | 30.1 | 38.9 | 10.4 | 31.5 |
| CO[C@H]1[C@@H](Cn2cc(-c3ccc(F)cc3)nn2)OC(O)[C@@H]1O (stereo partly drawn) [3-d, Furan glucosyl-1,2,3-triazole (3-d)] | 40.2 | 47.8 | 50.2 | 19.1 | 38.4 |
| CO[C@H]1[C@@H](Cn2cc(-c3ccc([N+](=O)[O-])cc3)nn2)OC(O)[C@@H]1O (stereo partly drawn) [3-e, Furan glucosyl-1,2,3-triazole (3-e)] | 25.6 | 23.1 | 44.7 | 17.1 | 39.6 |
| CO[C@H]1[C@@H](Cn2cc(-c3ccc(Cl)cc3)nn2)OC(O)[C@@H]1O (stereo partly drawn) [3-f, Furan glucosyl-1,2,3-triazole (3-f)] | 57.6 | 50.7 | 46.8 | 20.5 | 25.3 |
| CO[C@H]1[C@@H](Cn2cc(C(C)O)nn2)OC(O)[C@@H]1O (stereo partly drawn) [3-g, Furan glucosyl-1,2,3-triazole (3-g)] | 23.4 | 21.5 | 23.1 | 11.5 | 13.7 |
| OC1O[C@H](Cn2cc(-c3ccccc3)nn2)[C@H](OCc2ccccc2)[C@H]1O (stereo partly drawn) [4-a, Furan glucosyl-1,2,3-triazole (4-a)] | 35.4 | 37.8 | 21.2 | 19.5 | 26.4 |
| Cc1cccc(-c2cn(C[C@H]3OC(O)[C@H](O)[C@H]3OCc3ccccc3)nn2)c1 (stereo partly drawn) [4-b, Furan glucosyl-1,2,3-triazole (4-b)] | 27.1 | 27.8 | 29.6 | 10.9 | 29.9 |
| OC1O[C@H](Cn2cc(-c3ccc(F)cc3)nn2)[C@H](OCc2ccccc2)[C@H]1O (stereo partly drawn) [4-d, Furan glucosyl-1,2,3-triazole (4-d)] | 37.8 | 35.6 | 35.4 | 20.3 | 34.7 |
| OC1O[C@H](Cn2cc(-c3ccc(Cl)cc3)nn2)[C@H](OCc2ccccc2)[C@H]1O (stereo partly drawn) [4-f, Furan glucosyl-1,2,3-triazole (4-f)] | 43.1 | 40.2 | 38.7 | 22.2 | 31.7 |
| CC(O)c1cn(C[C@H]2OC(O)[C@H](O)[C@H]2OCc2ccccc2)nn1 (stereo partly drawn) [4-g, Furan glucosyl-1,2,3-triazole (4-g)] | 20.9 | 21.3 | 24.5 | 12.1 | 13.5 |
| CO[C@H]1C(Cn2cc(-c3ccccc3)nn2)OC(OC(C)=O)[C@@H]1OC(C)=O (stereo partly drawn) [5-a, Furan glucosyl-1,2,3-triazole (5-a)] | 61.3 | 62.7 | 42.3 | 36.1 | 57.6 |
| COc1ccc(-c2cn(C[C@H]3OC(OC(C)=O)[C@H](OC(C)=O)[C@H]3OC)nn2)cc1 (stereo partly drawn) [5-c, Furan glucosyl-1,2,3-triazole (5-c)] | 30 | 40.8 | 47.2 | 19.2 | 43.1 |
| CO[C@H]1[C@@H](Cn2cc(-c3ccc(F)cc3)nn2)OC(OC(C)=O)[C@@H]1OC(C)=O (stereo partly drawn) [5-d, Furan glucosyl-1,2,3-triazole (5-d)] | 70.9 | 69.2 | 65.2 | 23.2 | 67.6 |
| CO[C@H]1[C@@H](Cn2cc(-c3ccc([N+](=O)[O-])cc3)nn2)OC(OC(C)=O)[C@@H]1OC(C)=O (stereo partly drawn) [5-e, Furan glucosyl-1,2,3-triazole (5-e)] | 69.5 | 56.9 | 67.7 | 22.1 | 64.9 |
| CO[C@H]1[C@@H](Cn2cc(-c3ccc(Cl)cc3)nn2)OC(OC(C)=O)[C@@H]1OC(C)=O (stereo partly drawn) [5-f, Furan glucosyl-1,2,3-triazole (5-f)] | 71.5 | 60.5 | 68.2 | 27.6 | 56.1 |
| CC(=O)OC1O[C@H](Cn2cc(-c3ccc(F)cc3)nn2)[C@H](OCc2ccccc2)[C@H]1OC(C)=O (stereo partly drawn) [6-d, Furan glucosyl-1,2,3-triazole (6-d)] | 58.6 | 50.2 | 57.1 | 26.7 | 64.7 |
| CC(=O)OC1O[C@H](Cn2cc(-c3ccc([N+](=O)[O-])cc3)nn2)[C@H](OCc2ccccc2)[C@H]1OC(C)=O (stereo partly drawn) [6-e, Furan glucosyl-1,2,3-triazole (6-e)] | 59.3 | 48.9 | 50.3 | 27.4 | 56.3 |
| N#Cc1c(Cl)c(Cl)c(Cl)c(C#N)c1Cl [Chlorothalonil] | 94.2 | 89.2 | 94.2 | 98 | 95.5 |
